Data set [1] in a line: Release of active compound after incubation with DTT in PBS at 37° C., HPLC analysis. It is filed as physicochemical. Particulars: DTT (10 equiv), 37° C. in PBS, HPLC. On the procedure: FA-S2-POMA and the negative control FA-C2-POMA were incubated with dithiothreitol (DTT) under physiological conditions (37° C. in phosphate buffered saline (PBS)) and then subjected to HPLC analysis.
The effects of these folate caged PROTACS on ALK fusion protein degradation was assessed in cancer cells. FA-S2-MS4048 and FA-C2-MS4048 were incubated with DTT at 37° C. in PBS. […] Furthermore, compared to FA-S2-POMA (FIG. 11B), the release rate of FA-S2-MS4048 is slower.

In the next data set the test system is SU-DHL-1 cells. The data set can be described thus: Cell viability of SU-DHL-1 cells (CCK-8). The data set is classed as cell-based. The following applies: Homo sapiens, 72 hours, read-out: IC50 cell viability / proliferation. On the procedure:
(§1) For folic acid competitive degradation assay, cells were pretreated with folic acid (F8758, Sigma-Aldrich, 2.5 mM) for 2 hours, followed by the treatment of indicated PROTACs for indicated time. For endocytosis inhibition, cells were pretreated with Pitostop 2 (SML1169, Sigma-Aldrich, 1-30 μM) or MCD (21633, Cayman, 0.03-1 mM) for 12 hours, followed by co-treatment with indicated PROTACs for another 12 hours. For proteasome or E3 ligase inhibition assay, cells were treated with MG132 (BML-P11020, ENZO Life Sciences, 10 μM) or MLN4924 (S7109, SelleckChem, 1 μM) another 12 hours. For GSH-stimulating assay, cells were treated with S-Acetyl-GSH (29624, Cayman, 1 mM) with indicated PROTACs for 12 or 72 hours.
Cell in 96-well plates were treated with drugs as indicated, and then incubated with 10 μl/well of CCK-8 (cell counting Kit-8) solution at for 1-2 hours, followed by the measurement of optical density at 450 nm.

The target of another data set is T1, NPM-ALK fusion protein (Homo sapiens, UniProt Q9UM73).
T1 construct: endogenous in cells; host or cells: SU-DHL-1; the other entry of the earlier key: NPM1 (P06748, Nucleophosmin)
T1 sequence (Q9UM73 with tags, fused parts or gaps): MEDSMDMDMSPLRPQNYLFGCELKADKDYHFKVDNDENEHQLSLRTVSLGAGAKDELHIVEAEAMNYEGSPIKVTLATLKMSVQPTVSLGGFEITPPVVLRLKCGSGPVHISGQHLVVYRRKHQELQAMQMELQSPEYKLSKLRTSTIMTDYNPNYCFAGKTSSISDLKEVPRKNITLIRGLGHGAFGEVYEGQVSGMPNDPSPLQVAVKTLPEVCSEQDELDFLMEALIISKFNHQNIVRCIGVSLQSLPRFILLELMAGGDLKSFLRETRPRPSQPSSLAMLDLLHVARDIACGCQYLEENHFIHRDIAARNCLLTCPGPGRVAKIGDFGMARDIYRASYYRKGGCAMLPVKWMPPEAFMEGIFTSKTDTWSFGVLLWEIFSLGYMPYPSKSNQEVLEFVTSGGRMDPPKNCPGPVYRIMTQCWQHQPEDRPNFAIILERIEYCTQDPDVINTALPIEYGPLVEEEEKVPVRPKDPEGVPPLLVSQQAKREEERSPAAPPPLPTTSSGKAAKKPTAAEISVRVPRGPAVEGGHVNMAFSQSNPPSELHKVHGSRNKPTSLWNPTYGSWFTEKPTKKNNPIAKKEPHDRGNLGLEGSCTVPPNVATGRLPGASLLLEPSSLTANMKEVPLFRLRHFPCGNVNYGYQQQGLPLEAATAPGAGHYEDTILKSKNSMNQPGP
Nature of the data set: Western blot analysis of NPM-ALK fusion protein in SU-DHL-1 cells. The data set is classed as cell-based. The following applies: SU-DHL-1 cells; for DC50: 12 hours, read-out: DC50 of NPM-ALK fusion protein degradation. On the procedure:
as §1
(§2) Cells were lysed in EBC buffer (50 mM Tris pH 7.5, 120 mM NaCl, 0.5% NP-40) supplemented with protease inhibitors (Pierce) and phosphatase inhibitors (phosphatase inhibitor cocktail set I and II, Calbiochem). The protein concentrations of the lysates were measured using the Bio-Rad protein assay reagent on a Beckman Coulter DU-800 spectrophotometer. The lysates were then resolved by SDS-PAGE and immunoblotted with indicated antibodies.
(§3) Cells were lysed in EBC buffer (50 mM Tris-HCl pH 7.5, 120 mM NaCl and 0.5% NP-40) supplemented with protease inhibitors (Pierce) and phosphatase inhibitors (phosphatase inhibitor cocktailset I and II, Calbiochem). The protein concentrations of the lysates were measured using the Bio-Rad protein assay reagent on a Beckman Coulter DU-800 spectrophotometer. The lysates (40 μg protein) werethen resolved by 10% SDS-olyacrylamide gel electrophoresis (PAGE) at 130 V for 80 min and immunoblotted with indicated antibodies at 4° C. overnight, washed four times with Tris-buffered saline with 0.1% Tween-20 (TBST) buffer, incubated with secondary antibody for 1 hour at room temperature, and then washed 4 times with TBST.
For orientation: In western blotting, separated proteins are transferred to a membrane and probed.

In the next data set the target is T2, EML4-ALK fusion protein (Homo sapiens, UniProt Q9UM73).
T2 construct: endogenous in cells; host or cells: NCI-H2228, NCI-H3122; the other entry of the earlier key: EML4 (Q9HC35, Echinoderm microtubule-associated protein-like 4)
T2 sequence (Q9UM73 1058-1620 limits assumed): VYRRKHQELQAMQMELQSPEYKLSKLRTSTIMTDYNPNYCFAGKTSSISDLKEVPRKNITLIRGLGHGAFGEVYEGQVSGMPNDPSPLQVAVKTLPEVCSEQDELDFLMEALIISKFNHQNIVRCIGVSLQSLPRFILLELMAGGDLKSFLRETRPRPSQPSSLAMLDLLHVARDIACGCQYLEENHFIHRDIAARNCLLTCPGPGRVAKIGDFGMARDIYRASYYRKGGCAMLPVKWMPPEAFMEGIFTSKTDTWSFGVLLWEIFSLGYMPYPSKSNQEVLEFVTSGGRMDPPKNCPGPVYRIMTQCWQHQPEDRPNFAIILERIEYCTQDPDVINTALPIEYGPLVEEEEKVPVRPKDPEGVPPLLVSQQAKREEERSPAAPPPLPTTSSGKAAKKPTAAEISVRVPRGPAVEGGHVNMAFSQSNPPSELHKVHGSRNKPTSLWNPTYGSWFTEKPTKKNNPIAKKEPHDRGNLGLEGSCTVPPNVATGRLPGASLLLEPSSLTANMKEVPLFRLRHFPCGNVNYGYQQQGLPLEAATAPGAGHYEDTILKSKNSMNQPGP
The data set can be described thus: Western blot analysis of EML4-ALK fusion protein in NCI-H2228 and NCI-H3122 NSCLC cells. The data set is classed as cell-based. On the procedure: as §1, §2, §3

A further data set concerns MEK1 and MEK2. The data set can be described thus: Western blot analysis of MEK1 and MEK2 levels in HT29 and SK-MEL-28 cells. The data set is classed as cell-based. The following applies: HT29 and SK-MEL-28 cells, dose- and time-dependent. On the procedure:
as §1, §2, §3

Results on five compounds are retold here after patent publication US20230364243A1, “CANCER-SELECTIVE TARGET DEGRADATION BY TARGETING GROUP CAGED PROTACS” (Beth Israel Deaconess Medical Center, Inc., priority 2021, published 2023).

SMILES strings stand for the structures.

For orientation: DC50 means the concentration giving 50% degradation.

Turning to `Cc1cc(Nc2ncc(Cl)c(Nc3ccccc3S(=O)(=O)C(C)C)n2)c(OC(C)C)cc1C1CCN(CC(=O)NCCNc2cccc3c2C(=O)N(C2CCC(=O)N(C(=O)OCCCCCCn4cc(CNC(=O)CC[C@H](NC(=O)c5ccc(NCc6cnc7nc(N)[nH]c(=O)c7n6)cc5)C(=O)O)nn4)C2=O)C3=O)CC1` (stereo partly drawn) [FA-C2-MS4048, N^2-(4-(((2-amino-4-oxo-3,4-dihydropteridin-6-yl)methyl)amino)benzoyl)-N^5-((1-(6-((3-(4-((2-(2-(4-(4-((5-chloro-4-((2-(isopropylsulfonyl)phenyl)amino)pyrimidin-2-yl)amino)-5-isopropoxy-2-methylphenyl)piperidin-1-yl)acetamido)ethyl)amino)-1,3-dioxoisoindolin-2-yl)-2,6-dioxopiperidine-1-carbonyl)oxy)hexyl)-1H-1,2,3-triazol-4-yl)methyl)-L-glutamine], the “release of MS4048 after DTT treatment” value in data set [1] is listed as “no release of MS4048”. The IC50 in the data set with SU-DHL-1 cells amounted to 9500 nM. The “degradation of NPM-ALK fusion protein” value on NPM-ALK fusion protein is listed as “had some degradation effect”.

`Cc1cc(Nc2ncc(Cl)c(Nc3ccccc3S(=O)(=O)C(C)C)n2)c(OC(C)C)cc1C1CCN(C(=O)CCCC(=O)N[C@H](C(=O)N2C[C@H](OC(=O)CCCCn3cc(CNC(=O)CC[C@H](NC(=O)c4ccc(NCc5cnc6nc(N)[nH]c(=O)c6n5)cc4)C(=O)O)nn3)C[C@H]2C(=O)N[C@@H](C)c2ccc(-c3scnc3C)cc2)C(C)(C)C)CC1` [Folate-MS99, N^2-(4-(((2-amino-4-oxo-3,4-dihydropteridin-6-yl)methyl)amino)benzoyl)-N^5-((1-(5-(((3R,5S)-1-((S)-2-(5-(4-(4-((5-chloro-4-((2-(isopropylsulfonyl)phenyl)amino)pyrimidin-2-yl)amino)-5-isopropoxy-2-methylphenyl)piperidin-1-yl)-5-oxopentanamido)-3,3-dimethylbutanoyl)-5-(((S)-1-(4-(4-methylthiazol-5-yl)phenyl)ethyl)carbamoyl)pyrrolidin-3-yl)oxy)-5-oxopentyl)-1H-1,2,3-triazol-4-yl)methyl)-L-glutamine]: the IC50 in the data set with SU-DHL-1 cells was 200 nM. The “degradation of EML4-ALK fusion proteins” value on EML4-ALK fusion protein is reported as “efficiently degraded the EML4-ALK fusion proteins”. Besides, the “effect in degrading EML4-ALK fusion protein after pretreatment with free folic acid” value on EML4-ALK fusion protein (free folic acid pretreatment) is “antagonized the effect”. In addition, on NPM-ALK fusion protein, the “degradation of NPM-ALK fusion protein” value was “degraded NPM-ALK fusion protein efficiently” and the half-maximal degradation concentration (DC50) is 100 nM. At NPM-ALK fusion protein (free folic acid pretreatment), the “effect in degrading NPM-ALK fusion protein after pretreatment with folic acid” value is reported as “antagonized the effect”.

Regarding `Cc1cc(Nc2ncc(Cl)c(Nc3ccccc3S(=O)(=O)C(C)C)n2)c(OC(C)C)cc1C1CCN(C(=O)CCCC(=O)N[C@H](C(=O)N2C[C@H](NC(=O)CCCCn3cc(CNC(=O)CC[C@H](NC(=O)c4ccc(NCc5cnc6nc(N)[nH]c(=O)c6n5)cc4)C(=O)O)nn3)C[C@H]2C(=O)N[C@@H](C)c2ccc(-c3scnc3C)cc2)C(C)(C)C)CC1` [Folate-MS99N, N^2-(4-(((2-amino-4-oxo-3,4-dihydropteridin-6-yl)methyl)amino)benzoyl)-N^5-((1-(5-(((3R,5S)-1-((S)-2-(5-(4-(4-((5-chloro-4-((2-(isopropylsulfonyl)phenyl)amino)pyrimidin-2-yl)amino)-5-isopropoxy-2-methylphenyl)piperidin-1-yl)-5-oxopentanamido)-3,3-dimethylbutanoyl)-5-(((S)-1-(4-(4-methylthiazol-5-yl)phenyl)ethyl)carbamoyl)pyrrolidin-3-yl)amino)-5-oxopentyl)-1H-1,2,3-triazol-4-yl)methyl)-L-glutamine], at NPM-ALK fusion protein (even at 3 μM), the “degrading NPM-ALK” value is on record as “incapable of degrading NPM-ALK”.

Regarding `Cc1ncsc1-c1ccc([C@H](C)NC(=O)[C@@H]2C[C@@H](NC(=O)CCCCn3cc(CNC(=O)CC[C@H](NC(=O)c4ccc(NCc5cnc6nc(N)[nH]c(=O)c6n5)cc4)C(=O)O)nn3)CN2C(=O)[C@@H](NC(=O)CCCCCCCCCCNCCCONC(=O)c2ccc(F)c(F)c2Nc2ccc(I)cc2F)C(C)(C)C)cc1` [Folate-MS432N, N^2-(4-(((2-amino-4-oxo-3,4-dihydropteridin-6-yl)methyl)amino)benzoyl)-N^5-((1-(5-(((3R,5S)-1-((S)-2-(11-((3-((3,4-difluoro-2-((2-fluoro-4-iodophenyl)amino)benzamido)oxy)propyl)amino)undecanamido)-3,3-dimethylbutanoyl)-5-(((S)-1-(4-(4-methylthiazol-5-yl)phenyl)ethyl)carbamoyl)pyrrolidin-3-yl)amino)-5-oxopentyl)-1H-1,2,3-triazol-4-yl)methyl)-L-glutamine], in the data set with MEK1 and MEK2, the “degradation of MEK1 and MEK2” value was “could not do so”.

Turning to `Cc1cc(Nc2ncc(Cl)c(Nc3ccccc3S(=O)(=O)C(C)C)n2)c(OC(C)C)cc1C1CCN(C(=O)CCCC(=O)N[C@H](C(=O)N2C[C@H](O)C[C@H]2C(=O)N[C@@H](C)c2ccc(-c3scnc3C)cc2)C(C)(C)C)CC1` [MS99, (2S,4R)-1-((S)-2-(5-(4-(4-((5-chloro-4-((2-(isopropylsulfonyl)phenyl)amino)pyrimidin-2-yl)amino)-5-isopropoxy-2-methylphenyl)piperidin-1-yl)-5-oxopentanamido)-3,3-dimethylbutanoyl)-4-hydroxy-N-((S)-1-(4-(4-methylthiazol-5-yl)phenyl)ethyl)pyrrolidine-2-carboxamide], the IC50 in the data set with SU-DHL-1 cells was 91.4 nM. In addition, at NPM-ALK fusion protein, the “degradation of NPM-ALK fusion protein” value is “degraded NPM-ALK fusion protein efficiently” and the 50% degradation concentration (DC50) came to 30 nM.
